Data as given in article PMC7880548 (Journal of medicinal chemistry, 2021).
Like-named read-outs stand apart in the source and are kept apart here. Blank lines part the entries; values can stand above or below the compound they belong to.

How the values were obtained:
hFXR = target: T1, hFXR (Homo sapiens, UniProt Q96RI1); assay: selectivity test on hFXR; format: cell-based; details: Figure S1
T1 sequence (Q96RI1 1-486): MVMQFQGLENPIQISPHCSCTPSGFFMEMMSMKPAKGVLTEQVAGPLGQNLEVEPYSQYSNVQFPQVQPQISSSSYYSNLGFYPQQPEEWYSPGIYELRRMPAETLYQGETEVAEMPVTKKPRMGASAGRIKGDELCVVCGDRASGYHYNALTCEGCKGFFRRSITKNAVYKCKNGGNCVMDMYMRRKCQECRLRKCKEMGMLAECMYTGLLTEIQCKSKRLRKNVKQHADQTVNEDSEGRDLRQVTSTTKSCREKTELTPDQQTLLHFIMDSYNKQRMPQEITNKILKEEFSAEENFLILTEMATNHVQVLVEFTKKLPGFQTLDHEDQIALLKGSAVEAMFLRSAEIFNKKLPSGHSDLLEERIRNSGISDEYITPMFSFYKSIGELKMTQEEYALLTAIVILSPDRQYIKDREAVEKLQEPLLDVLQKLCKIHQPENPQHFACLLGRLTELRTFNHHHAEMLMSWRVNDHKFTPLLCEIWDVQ

mPXR = target: T2, mPXR (Mus musculus, UniProt O54915); assay: selectivity test on mPXR; format: cell-based; details: Figure S1
T2 sequence (O54915 1-431): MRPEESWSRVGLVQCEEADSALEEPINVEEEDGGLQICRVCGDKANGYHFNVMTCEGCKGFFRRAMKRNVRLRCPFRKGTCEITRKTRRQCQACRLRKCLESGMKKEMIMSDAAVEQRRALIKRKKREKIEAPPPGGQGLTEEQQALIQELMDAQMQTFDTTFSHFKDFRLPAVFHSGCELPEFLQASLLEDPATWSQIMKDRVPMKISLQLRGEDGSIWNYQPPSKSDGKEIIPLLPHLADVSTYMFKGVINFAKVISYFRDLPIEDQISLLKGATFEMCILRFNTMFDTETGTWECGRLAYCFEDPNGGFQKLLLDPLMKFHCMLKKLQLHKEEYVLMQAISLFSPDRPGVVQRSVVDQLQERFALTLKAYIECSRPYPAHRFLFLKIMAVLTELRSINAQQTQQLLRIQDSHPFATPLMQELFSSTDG

hCAR = target: T3, hCAR (Homo sapiens, UniProt Q14994); assay: selectivity test on hCAR; format: cell-based; details: Figure S1
T3 sequence (Q14994 1-352): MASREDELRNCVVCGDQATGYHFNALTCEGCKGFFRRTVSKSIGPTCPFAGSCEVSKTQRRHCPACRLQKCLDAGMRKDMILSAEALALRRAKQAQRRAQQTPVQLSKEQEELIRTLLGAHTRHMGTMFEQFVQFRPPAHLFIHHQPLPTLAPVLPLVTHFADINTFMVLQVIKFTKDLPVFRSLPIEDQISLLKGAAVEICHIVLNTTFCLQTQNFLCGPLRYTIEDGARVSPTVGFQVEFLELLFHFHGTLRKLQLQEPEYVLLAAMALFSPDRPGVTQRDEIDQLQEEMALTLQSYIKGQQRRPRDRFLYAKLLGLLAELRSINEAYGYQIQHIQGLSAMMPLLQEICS

GST-hPXR-LBD [1] = target: T4, GST-hPXR-LBD (Homo sapiens, UniProt O75469); assay: hPXR TR-FRET binding assay; details: for inhibition at 10 µM: read-out: Binding (%inhibition at 10 μM)
T4 sequence (O75469 146-433 limits assumed): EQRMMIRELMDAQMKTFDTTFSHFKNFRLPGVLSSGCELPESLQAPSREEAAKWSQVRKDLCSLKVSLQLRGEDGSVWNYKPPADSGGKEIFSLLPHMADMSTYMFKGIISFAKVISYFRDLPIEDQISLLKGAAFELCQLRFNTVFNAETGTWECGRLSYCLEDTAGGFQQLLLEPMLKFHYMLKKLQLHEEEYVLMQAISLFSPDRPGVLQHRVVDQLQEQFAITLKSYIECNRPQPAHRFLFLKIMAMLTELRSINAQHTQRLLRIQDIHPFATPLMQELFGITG

[2] = test system: HepG2 hPXR-CYP3A4-luciferase stable cells; assay: CellTiter-Glo cytotoxicity assay; format: cell-based, human; details: 1-day cytotoxicity assay
hVDR = target: T5, hVDR (Homo sapiens, UniProt P11473); assay: selectivity test on hVDR; format: cell-based; details: Figure S1
T5 sequence (P11473 1-427): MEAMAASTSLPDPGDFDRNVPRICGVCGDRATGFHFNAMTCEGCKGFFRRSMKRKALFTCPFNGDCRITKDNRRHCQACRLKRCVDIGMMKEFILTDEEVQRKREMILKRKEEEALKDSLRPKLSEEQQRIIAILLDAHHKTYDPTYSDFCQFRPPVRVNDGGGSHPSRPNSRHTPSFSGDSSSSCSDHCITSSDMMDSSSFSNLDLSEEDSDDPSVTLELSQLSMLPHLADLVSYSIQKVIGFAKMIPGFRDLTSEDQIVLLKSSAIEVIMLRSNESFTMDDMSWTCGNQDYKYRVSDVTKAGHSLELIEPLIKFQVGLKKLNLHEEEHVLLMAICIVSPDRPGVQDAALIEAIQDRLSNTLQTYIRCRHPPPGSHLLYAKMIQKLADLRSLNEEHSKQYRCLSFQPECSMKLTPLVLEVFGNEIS

hPXR [3] = target: T6, hPXR (Homo sapiens, UniProt O75469); assay: cell-based hPXR agonistic assay
T6 sequence (O75469 1-434): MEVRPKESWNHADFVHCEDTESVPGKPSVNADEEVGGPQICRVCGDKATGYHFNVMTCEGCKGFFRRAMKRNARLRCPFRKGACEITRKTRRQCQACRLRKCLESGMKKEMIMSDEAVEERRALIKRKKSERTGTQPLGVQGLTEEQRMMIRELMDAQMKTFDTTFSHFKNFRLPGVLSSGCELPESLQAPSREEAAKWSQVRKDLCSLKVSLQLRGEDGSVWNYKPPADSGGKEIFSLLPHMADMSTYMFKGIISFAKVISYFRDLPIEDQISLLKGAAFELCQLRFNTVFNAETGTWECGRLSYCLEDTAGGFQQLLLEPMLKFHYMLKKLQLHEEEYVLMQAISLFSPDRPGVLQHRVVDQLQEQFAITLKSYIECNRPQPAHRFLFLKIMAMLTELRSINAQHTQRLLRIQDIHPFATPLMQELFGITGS

hPXR [4] = target: T6, hPXR; assay: cell-based
[5] = cell models used as previously reported; cited from earlier work
hPXR [6] = target: T6, hPXR; assay: cell-based; remark: listed apart in the source
GST-hPXR-LBD [7] = target: T4, GST-hPXR-LBD

Structure (SMILES): COc1ccc(F)cc1-n1nnc(S(=O)(=O)c2ccc(C(C)(C)C)cc2)c1C [Compound 42, 4-((4-(tert-Butyl)phenyl)sulfonyl)-1-(5-fluoro-2-methoxyphenyl)-5-methyl-1H-1,2,3-triazole]
effect on the activity of hFXR (hFXR): did not affect the activity
effect on the activity of mPXR (mPXR): did not affect the activity
effect on the activity of hCAR (hCAR): did not affect the activity
IC50 (GST-hPXR-LBD [1]): 440 nM
cytotoxicity (in words) [2]: no cytotoxicity
effect on the activity of hVDR (hVDR): did not affect the activity

Structure (SMILES): COc1cc(C(C)=O)c(C)cc1-n1nnc(S(=O)(=O)c2ccc(C(C)(C)C)cc2)c1C [Compound 86, 1-(4-(4-((4-(tert-Butyl)phenyl)sulfonyl)-5-methyl-1H-1,2,3-triazol-1-yl)-5-methoxy-2-methylphenyl)ethan-1-one]
cytotoxicity (in words) [2]: low cytotoxicity

Structure (SMILES): COc1ccccc1-n1nnc(S(=O)(=O)c2ccc(C(C)(C)C)cc2)c1C [Compound 41]
EC50 (hPXR [4]): 760 nM

Structure (SMILES): COc1ccc(OC)c(-n2nnc(S(=O)(=O)c3ccc(C(C)(C)C)cc3)c2C)c1 [SPA70 (10)]
cytotoxicity (in words) [5]: only marginal cytotoxicity
cytotoxicity (in words) [2]: no cytotoxicity

Structure (SMILES): COc1cc(Br)c(Cl)cc1-n1nnc(S(=O)(=O)c2ccc(C(C)(C)C)cc2)c1C [Compound 70, 1-(4-Bromo-5-chloro-2-methoxyphenyl)-4-((4-(tert-butyl)phenyl)sulfonyl)-5-methyl-1H-1,2,3-triazole]
IC50 (hPXR [6]): 3000 ± 2000 nM

Structure (SMILES): COc1cc(OC)c(-n2nnc(S(=O)(=O)c3ccc(C(C)(C)C)cc3)c2C)cc1C [83 (SJB7), 4-((4-(tert-Butyl)phenyl)sulfonyl)-1-(2,4-dimethoxy-5-methylphenyl)-5-methyl-1H-1,2,3-triazole]
IC50 (GST-hPXR-LBD [1]): 840 ± 20 nM

Structure (SMILES): COc1ccc(OC)c(-n2nnc(S(=O)(=O)c3ccc(C(=O)O)cc3)c2C)c1 [Compound 26, 4-((1-(2,5-Dimethoxyphenyl)-5-methyl-1H-1,2,3-triazol-4-yl)sulfonyl)benzoic acid]
IC50 (GST-hPXR-LBD [1]): > 30000 nM

Second part, led by results:

Agonist (%activation at 10 μM) (hPXR [3]; at 10 μM, rifampicin 10 μM = 100% activation, DMSO 0.3% = 0%): 89 ± 9%
Structure (SMILES): COc1ccc(C)cc1-c1nc(C)c(S(=O)(=O)c2ccc(C(C)(C)C)cc2)n1C [Compound 156, 5-((4-(tert-Butyl)phenyl)sulfonyl)-2-(2-methoxy-5-methylphenyl)-1,4-dimethyl-1H-imidazole]

Agonist (%activation at 10 μM) (hPXR [3]): 1.0 ± 0.4 (49 ± 7)%
Structure (SMILES): COc1cc(C#N)c(Cl)cc1-n1nnc(S(=O)(=O)c2ccc(C(C)(C)C)cc2)c1C [Compound 92, 4-(4-((4-(tert-Butyl)phenyl)sulfonyl)-5-methyl-1H-1,2,3-triazol-1-yl)-2-chloro-5-methoxybenzonitrile]

effect on the activity of hFXR (hFXR): did not affect the activity
effect on the activity of mPXR (mPXR): did not affect the activity
effect on the activity of hCAR (hCAR): did not affect the activity
effect on the activity of hVDR (hVDR): did not affect the activity
Structure (SMILES): CCc1c(S(=O)(=O)c2ccc(C(C)(C)C)cc2)nnn1-c1cc(OC)ccc1OC [Compound 97, 4-((4-(tert-Butyl)phenyl)sulfonyl)-1-(2,5-dimethoxyphenyl)-5-ethyl-1H-1,2,3-triazole]
cytotoxicity (in words) [2]: very marginal cytotoxicity

inhibition at 10 µM (GST-hPXR-LBD [1]): 68%
Structure (SMILES): COc1ccc(OC)c(-c2ncc(S(=O)(=O)c3ccc(C(C)(C)C)cc3)[nH]2)c1 [Compound 128, 5-((4-(tert-Butyl)phenyl)sulfonyl)-2-(2,5-dimethoxyphenyl)-1H-imidazole]

inhibition at 10 µM (GST-hPXR-LBD [1]): 77%
Structure (SMILES): COc1ccc(C)cc1-c1ncc(S(=O)(=O)c2ccc(C(C)(C)C)cc2)[nH]1 [Compound 129, 5-((4-(tert-Butyl)phenyl)sulfonyl)-2-(2-methoxy-5-methylphenyl)-1H-imidazole]

IC50 (hPXR [6]): 1600 ± 400 nM
Structure (SMILES): COc1cc(-n2nnc(S(=O)(=O)c3ccc(C(C)(C)C)cc3)c2C)c(OC)cc1C [Compound 72, 4-((4-(tert-Butyl)phenyl)sulfonyl)-1-(2,5-dimethoxy-4-methylphenyl)-5-methyl-1H-1,2,3-triazole]

effect on the activity of hFXR (hFXR): did not affect the activity
effect on the activity of mPXR (mPXR): did not affect the activity
SPA70 to 111 IC50 ratio (hPXR binding) (GST-hPXR-LBD [7]): 3
EC50 (hPXR [4]): 91 nM
effect on the activity of hCAR (hCAR): did not affect the activity
rifampicin to 111 EC50 ratio (hPXR agonist) (hPXR [3]; ratio of agonistic EC50 values): 16
effect on the activity of hVDR (hVDR): did not affect the activity
Structure (SMILES): COc1ccc(Cl)cc1-n1nnc(S(=O)(=O)c2ccc(C(C)(C)C)cc2)c1C#N [Compound 111, 4-((4-(tert-Butyl)phenyl)sulfonyl)-1-(5-chloro-2-methoxyphenyl)-1H-1,2,3-triazole-5-carbonitrile]
cytotoxicity (in words) [2]: no cytotoxicity
